Assay results as given in publication PMC6271143, “Novel Triphenylantimony(V) and Triphenylbismuth(V) Complexes with Benzoic Acid Derivatives: Structural Characterization, in Vitro Antileishmanial and Antibacterial Activities and Cytotoxicity against Macrophages” (Molecules, 2014).
Converted amounts (≈) assume the structure as drawn. Like-named read-outs stand apart in the source and are kept apart here.

Assays:
[1] = system: L. infantum promastigotes; assay: Antileishmanial activity assay (growth inhibition, absorbance at 600 nm) against L. infantum promastigotes; format: cell-based, Leishmania infantum (strain MCAN/BR/2002/BH400); conditions: for IC50: promastigotes, IC50/72 h (source says 48 h), non-linear regression, read-out: IC50 (μM) ± SEM, L. infantum strain
Procedure: (§1) The four complexes, their metal salts and their respective free ligands were primarily tested for their activity to investigate whether they inhibit the growth of L. amazonensis and L. infantum promastigotes. The growth rate of the promastigotes incubated for […] in the presence of test compounds was compared to those of nontreated negative control and to those treated with the standard antileishmanial antimony(III) drug tartar emetic.
(§2) Leishmania amazonensis (strain MHOM/BR/1989/BA199) and Leishmania infantum (strain MCAN/BR/2002/BH400) promastigotes were maintained in minimum essential culture medium (α-MEM) (Gibco, Invitrogen, Grand Island, NY, USA) supplemented with 10% (v/v) heat inactivated fetal calf serum (Cultilab, Campinas, SP, Brazil), […] kanamycin, […] ampicillin, 2 mM L-glutamine, […] hemin, 5 mM biopterin, (Sigma-Aldrich), pH 7.0 and incubated at 25 °C [52].
(§3) Complexes 1-4 were evaluated in vitro for their activity against two wild type Leishmania parasites. Log-phase L. amazonensis and L. infantum promastigotes (1 × 10^6 parasites/mL) were seeded in 24-wells cell culture plates with 1.5 mL of α-MEM, incubated under shaking at 25 °C during 72 h in the presence of several concentrations of complex 1–4, free ligands HL1-2, and metal precursors M1-2. Non-treated parasites in the presence of DMSO solution and absence of any test compound were established for growth comparison. Stock solutions of the ligands, 2-acetylsalicylic acid and 3-acetoxybenzoic acid, their metal complexes 1–4, and metal salts, Ph3SbCl2 and Ph3BiCO3 were dissolved in DMSO and diluted in α-MEM cell culture medium to obtain the range of tested concentrations. […] For drug susceptibility assay, Leishmania growth curves were constructed by measuring absorbance at 600 nm. The antileishmanial activity is expressed as IC50/72 h, which is the concentration that reduces cell growth by 50% compared to untreated control (relative growth). All experiments were done at least three times as independent experiments performed in triplicate.
(§4) The IC50 and CC50 values were calculated by nonlinear regression using the software GraphPad Prism 5.0. The acceptable level of significance was 95% (p < 0.05).

[2] = system: L. amazonensis promastigotes; assay: Antileishmanial activity assay (growth inhibition, absorbance at 600 nm) against L. amazonensis promastigotes; format: cell-based, Leishmania amazonensis (strain MHOM/BR/1989/BA199); conditions: for IC50: promastigotes, IC50/72 h (source says 48 h), non-linear regression, read-out: IC50 (μM) ± SEM, L. amazonensis strain
Procedure: as §1, §2, §3, §4

[3] = system: Staphyloccocus aureus (ATCC 6538); assay: Minimum inhibitory concentration, broth dilution (NCCLS M7-A6), S. aureus; format: cell-based, Staphylococcus aureus; conditions: for MIC: ATCC 6538, 100% inhibition of growth, visual, 24 h at 37 °C; for d SI (selective index): ratio between MIC in murine macrophages and MIC in Staphylococcus aereus: as printed in footnote d
Procedure: (§5) Antimicrobial activity tests were performed in a quantitative way by determining the minimum inhibitory concentration (MIC) by the standard method for in vitro anti-bacterial susceptibility testing proposed by the National Committee for Clinical Laboratory Standards [NCCLS M7-A6] [56]. Sthaphyloccocus aureus [ATCC6538] and Pseudomonas aeruginosa [ATCC27853] stored in Müller–Hilton broth were sub-cultured for testing in the same medium and incubated for 24 h, respectively, at 37 °C. The bacterial cells of the two strains were suspended in Müller-Hilton broth to produce inocula of 10^8 CFU mL^–1, determined by a spectrophotometric method. Serial dilutions of the compounds, previously dissolved in DMSO, were prepared in 10 test tubes with Müller–Hilton broth to final concentrations from 100 μg mL^–1 to 0.20 μg mL^–1 for P. aeruginosa and S. aureus. An old inoculum of each strain was added to the tubes to obtain final concentrations of 10^5 CFU. […] Tests using tetracycline as positive control and DMSO as negative control were carried out in parallel. All tests were performed in triplicate with full agreement between the results.

[4] = system: Pseudomonas aeruginosa (ATCC 27853); assay: Minimum inhibitory concentration, broth dilution (NCCLS M7-A6), P. aeruginosa; format: cell-based; conditions: visual, 24 h at 37 °C
Procedure: as §5

[5] = system: mouse peritoneal macrophages; assay: Cytotoxicity (MTT assay) against mouse peritoneal macrophages; format: cell-based, mouse (Balb/c); conditions: 24 h, murine peritoneal macrophages, read-out: CC50: concentration that is cytotoxic against 50% of macrophages
Procedure: (§6) The in vitro cytotoxicity of the complexes, along their metal salts and ligands, was evaluated by means of the MTT assays towards mouse peritoneal macrophages. The results of in vitro cytotoxic activity are expressed as CC50, which is the concentration of compound that inhibits the viability of macrophages by 50% as compared to untreated macrophages control.
(§7) The concentration of studied compounds that is cytotoxic to 50% of the macrophages (CC50) was determined by the 3-(4,5-dimethylthiazol-2-yl)-2,5 diphenyltetrazolium bromide (MTT) method according to Mosmann. Briefly, peritoneal macrophages were obtained from Balb/c mice after intraperitoneal injection of 2 mL of 3% sodium thioglycolate medium. Mice were euthanized after 72 h, just before removal of peritoneal macrophages by washing with cold RPMI 1640 medium. The procedure was approved by the Internal Ethics Committee in Animal Experimentation (CEUA) of the Federal University of Uberlândia (Protocol 069/2013). After washing, the cell suspension (4.0 × 10^6/mL) was seeded (0.1 mL) in 96-well flat bottom plates. Macrophages were allowed to adhere for 2 h and non-adherent cells were removed by washing with RPMI. Then, the compounds were added to the wells at different concentrations and the cells were further cultured in RPMI-1640 supplemented with 10% FBS for 24 h at 37 °C in a humidified 5% CO2 atmosphere. Thereafter, the medium was replaced with fresh RPMI containing 0.5 mg/mL of MTT and the plates were incubated for additional 4 h. Supernatants were aspirated and the formazan crystals formed were dissolved in 100 μL of DMSO. After 15 min of incubation at room temperature, absorbance of solubilized MTT formazan product was spectrophotometrically measured at 570 nm.
as §4

[6] = system: Pseudomonas aeruginosa (ATCC 27853); parameters: method as in doi:10.1016/j.molstruc.2010.11.048; conditions: cited from earlier work
[7] = Antileishmanial activity assay (growth inhibition, absorbance at 600 nm) against L. infantum promastigotes; format: cell-based, Leishmania infantum (strain MCAN/BR/2002/BH400); conditions: Balb/c, mouse (macrophages); Leishmania infantum (promastigotes), pH 7; CC50 macrophages / IC50 L. infantum; read-out: a SI (selective index): ratio between CC50 in murine macrophages and IC50 in L. infantum
Procedure: as §1, §2, §3, §4

[8] = Antileishmanial activity assay (growth inhibition, absorbance at 600 nm) against L. amazonensis promastigotes; format: cell-based, Leishmania amazonensis (strain MHOM/BR/1989/BA199); conditions: Balb/c, mouse (macrophages); Leishmania amazonensis (promastigotes), pH 7; CC50 macrophages / IC50 L. amazonensis; read-out: b SI (selective index): ratio between CC50 in murine macrophages and IC50 in L. amazonensis (WT)
Procedure: as §1, §2, §3, §4

[9] = Cytotoxicity (MTT assay) against mouse peritoneal macrophages; format: cell-based, mouse (Balb/c); conditions: Balb/c, mouse, mouse peritoneal macrophages, murine peritoneal macrophages, read-out: CC50: concentration that is cytotoxic against 50% of macrophages
Procedure: as §6, §7, §4

[10] = system: L. infantum promastigotes; assay: Antileishmanial activity assay (growth inhibition, absorbance at 600 nm) against L. infantum promastigotes; format: cell-based, Leishmania infantum (strain MCAN/BR/2002/BH400); conditions: Leishmania infantum, IC50/72 h (source says 48 h), non-linear regression, read-out: IC50 (μM) ± SEM, L. infantum strain
[11] = system: Pseudomonas aeruginosa (ATCC 27853); assay: Minimum inhibitory concentration, broth dilution (NCCLS M7-A6), P. aeruginosa; format: cell-based; conditions: as printed in footnote c
[12] = system: L. amazonensis promastigotes; parameters: method as in PMID 23099618; conditions: read-out: IC50 (μM) ± SEM, L. amazonensis strain; cited from earlier work
[13] = system: Leishmania promastigotes; parameters: method as in PMID 19633606; conditions: cited from earlier work
[14] = Staphylococcus aureus, ATCC6538
[15] = Pseudomonas aeruginosa, ATCC27853, 100% inhibition of growth

Compound | a SI (selective index): ratio between CC50 in murine macrophages and IC50 in L. infantum [1] | IC50 [1] [µM] | b SI (selective index): ratio between CC50 in murine macrophages and IC50 in L. amazonensis (WT) [2] | IC50 [2] [µM] | MIC [3] [µM] | MIC ([4]; 100% inhibition of growth) [µM] | CC50 [5] [µM] | further results
CC(=O)Oc1ccccc1C(=O)[O][Bi]([O]C(=O)c1ccccc1OC(C)=O)([c]1ccccc1)([c]1ccccc1)[c]1ccccc1 [Complex 3, Bis-(acetylsalicylato)triphenylbismuth(V)] | 0.74 | 8.6 ± 1.36 | 0.75 | 8.5 ± 0.56 | 4.1 | 8.2 | 6.4 ± 0.5 | 
[Cl][Sb]([Cl])([c]1ccccc1)([c]1ccccc1)[c]1ccccc1 [Complex M1, triphenylantimony(V) dichloride] | 1.7 | 13.2 ± 2.03 | 2.4 | 9.3 ± 0.26 | 235.8 | 235.8 | 22.7 ± 0.93 | 
CC(=O)Oc1ccccc1C(=O)[O][Sb]([O]C(=O)c1ccccc1OC(C)=O)([c]1ccccc1)([c]1ccccc1)[c]1ccccc1 [Complex 1, Bis-(acetylsalicylato)triphenylantimony(V)] | 4.51 | 13.3 ± 0.74 | 2.0 | 30.7 ± 3.43 | 140.6 | 140.6 | 60.5 ± 3.4 | 
CN(C)[C@@H]1C(O)=C(C(N)=O)C(=O)[C@@]2(O)C(O)=C3C(=O)c4c(O)cccc4[C@@](C)(O)[C@H]3C[C@@H]12 [Tetracycline, tetracycline] |  |  |  |  |  |  |  | MIC [3, 14]: 3.5 µM (≈ 1.56 µg/mL); MIC, P. aeruginosa [6]: >96.7 [48] μM
CC(=O)Oc1ccccc1C(=O)O [HL1, acetylsalicylic acid] |  |  |  |  |  |  |  | selectivity ratio at 72 h [7]: < 1; selectivity ratio at 72 h [8]: < 1; MIC [3, 14]: > 555 µM; d SI (selective index): ratio between MIC in murine macrophages and MIC in Staphylococcus aereus [3]: <1; MIC [4, 15]: > 555 µM; CC50 at 24 h [9]: 580.1 ± 1.07 µM; IC50 [10]: 8990 µM; c SI (selective index): ratio between CC50 in murine macrophages and MIC in Pseudomonas aureginosa [11]: <1
Bis-(3-acetoxybenzoato)triphenylantimony(V) [Complex 2] | 2.45 | 12.2 ± 0.91 | 3.40 | 8.9 ± 0.36 | 140.6 | 140.6 | 30 ± 2.3 | 
CC(=O)Oc1cccc(C(=O)O)c1 [HL2, 3-acetoxybenzoic acid] |  |  |  |  |  |  |  | selectivity ratio at 72 h [7]: < 1; selectivity ratio at 72 h [8]: < 1; MIC [3, 14]: > 555 µM; d SI (selective index): ratio between MIC in murine macrophages and MIC in Staphylococcus aereus [3]: <1; MIC [4, 15]: > 555 µM; CC50 at 24 h [9]: 2768 ± 9 µM; c SI (selective index): ratio between CC50 in murine macrophages and MIC in Pseudomonas aureginosa [11]: <1
O=C([O-])[C@H]([O-])[C@@H]([O-])C(=O)[O-].O=C([O-])[C@H]([O-])[C@@H]([O-])C(=O)[O-].[K+].[K+].[Sb+3].[Sb+3] [TA, potassium antimony tartrate] |  | 100 ± 3 |  |  |  |  |  | IC50 [12]: 83 ± 1 µM
CC(=O)Oc1cccc(C(=O)[O][Bi]([O]C(=O)c2cccc(OC(C)=O)c2)([c]2ccccc2)([c]2ccccc2)[c]2ccccc2)c1 [Complex 4, Bis-(3-acetoxybenzoato)triphenylbismuth(V)] | <1 | 4 ± 0.39 | <1 | 2.9 ± 0.17 | 4.1 | 16.5 | 2 ± 0.1 | 
meglumine antimoniate |  |  |  |  |  |  |  | activity in the promastigotes model [13]: inactive
O=C([O-])[O-].c1cc[c]([Bi+2]([c]2ccccc2)[c]2ccccc2)cc1 [Complex M2, triphenylbismuth carbonate] | 10.6 | 1.1 ± 0.37 | 4.6 | 2.7 ± 0.34 | 24.5 | 48.9 | 12.1 ± 0.45 | 
